system: HSB-2 cells; test: Inhibition of HSB-2 leukemic cell line proliferation (WST-1); type: cell-based, human; settings: Homo sapiens, HSB2, 48 h, cytotoxicity on HSB-2 cells, two days incubation, WST-1 read-out
Experimental: HSB2 cell line, a human acute lymphoblastic leukemia (ATCC; CCL-120.1) cell line, was grown in RPMI-1640 medium (Lonza, Belgium) supplemented with 10% fetal calf serum (Hyclone, US) and antibiotics. Exponential growing phase cells were seed in flat bottom 96-well microplates (TTP, Switzerland) at 50000 cells per well in 220 μl of medium with compounds (in different concentrations) and incubated for two days at 37° C., 5% CO2. After incubation, 100 μl of supernatant were removed and 10 μl of WST-1 (Roche, Switzerland) were added. After 2 hour incubation at 37° C., 5% CO2, optical densities were measured at 450 nm. Proliferation is calculated with respect of control points (no compound and treatment with Triton X100 to have maximum and minimum proliferation data). The IC50 was determined from a graph with at least four points, each derived from the mean of at least 2 experiments. […] The results are shown in Table 1 for a number of compounds.

Row | Structure (SMILES) | IC50
1 | Nc1nc(N2CCN(C(=O)COc3ccc(Cl)cc3)CC2)c2nc(-c3ccccc3)sc2n1 [Example 215, 1-(4-(5-amino-2-phenylthiazolo[5,4-d]pyrimidin-7-yl)piperazin-1-yl)-2-(4-chlorophenoxy)ethanone] | 0.24 µM
2 | Nc1nc(N2CCN(C(=O)COc3ccc(O)cc3)CC2)c2nc(CCc3ccc(F)cc3)sc2n1 [Example 224, 1-(4-(5-amino-2-(4-fluorophenethyl)thiazolo[5,4-d]pyrimidin-7-yl)piperazin-1-yl)-2-(4-hydroxyphenoxy)ethanone] | 3.94 µM
3 | COC(=O)c1ccc(OCC(=O)N2CCN(c3nc(N)nc4sc(CCc5ccc(F)cc5)nc34)CC2)cc1 [Example 225, methyl 4-(2-(4-(5-amino-2-(4-fluorophenethyl)thiazolo[5,4-d]pyrimidin-7-yl)piperazin-1-yl)-2-oxoethoxy)benzoate] | > 10 µM
4 | Nc1nc(N2CCN(C(=O)COc3ccc(OC(F)(F)F)cc3)CC2)c2nc(CCc3ccc(F)cc3)sc2n1 [Example 226, 1-(4-(5-amino-2-(4-fluorophenethyl)thiazolo[5,4-d]pyrimidin-7-yl)piperazin-1-yl)-2-(4-(trifluoromethoxy)phenoxy)ethanone] | > 10 µM
5 | CC(=O)c1ccc(OCC(=O)N2CCN(c3nc(N)nc4sc(CCc5ccc(F)cc5)nc34)CC2)cc1 [Example 227, 2-(4-acetylphenoxy)-1-(4-(5-amino-2-(4-fluorophenethyl)thiazolo[5,4-d]pyrimidin-7-yl)piperazin-1-yl)ethanone] | > 10 µM
6 | Nc1nc(N2CCN(C(=O)COc3cccc(Cl)c3)CC2)c2nc(CCc3ccc(F)cc3)sc2n1 [Example 228, 1-(4-(5-amino-2-(4-fluorophenethyl)thiazolo[5,4-d]pyrimidin-7-yl)piperazin-1-yl)-2-(3-chlorophenoxy)ethanone] | > 10 µM
7 | COc1ccc(OCC(=O)N2CCN(c3nc(N)nc4sc(Cc5ccc(F)cc5)nc34)CC2)cc1 [Example 230, 1-(4-(5-amino-2-(4-fluorobenzyl)thiazolo[5,4-d]pyrimidin-7-yl)piperazin-1-yl)-2-(4-methoxyphenoxy)ethanone] | 2.21 µM
8 | Nc1nc(N2CCN(C(=O)COc3ccc(Br)cc3)CC2)c2nc(Cc3ccc(F)cc3)sc2n1 [Example 231, 1-(4-(5-amino-2-(4-fluorobenzyl)thiazolo[5,4-d]pyrimidin-7-yl)piperazin-1-yl)-2-(4-bromophenoxy)ethanone] | 2.63 µM
9 | Nc1nc(N2CCN(C(=O)COc3ccc(F)cc3)CC2)c2nc(-c3ccc(F)cc3)sc2n1 [Example 233, 1-(4-(5-amino-2-(4-fluorophenyl)thiazolo[5,4-d]pyrimidin-7-yl)piperazin-1-yl)-2-(4-fluorophenoxy)ethanone] | > 10 µM
10 | COc1ccc(OCC(=O)N2CCN(c3nc(N)nc4sc(-c5ccc(F)cc5)nc34)CC2)cc1 [Example 234, 1-(4-(5-amino-2-(4-fluorophenyl)thiazolo[5,4-d]pyrimidin-7-yl)piperazin-1-yl)-2-(4-methoxyphenoxy)ethanone] | 0.2 µM
11 | COc1ccc(OCC(=O)N2CCN(c3nc(N)nc4sc(CCc5cccc(OC)c5)nc34)CC2)cc1 [Example 253, 1-(4-(5-amino-2-(3-methoxyphenethyl)thiazolo[5,4-d]pyrimidin-7-yl)piperazin-1-yl)-2-(4-methoxyphenoxy)ethanone] | 4.99 µM
12 | COc1cccc(CCc2nc3c(N4CCN(C(=O)COc5ccc(Br)cc5)CC4)nc(N)nc3s2)c1 [Example 254, 1-(4-(5-amino-2-(3-methoxyphenethyl)thiazolo[5,4-d]pyrimidin-7-yl)piperazin-1-yl)-2-(4-bromophenoxy)ethanone] | > 10 µM
13 | COc1cccc(CCc2nc3c(N4CCN(C(=O)COc5ccc(Cl)cc5)CC4)nc(N)nc3s2)c1 [Example 255, 1-(4-(5-amino-2-(3-methoxyphenethyl)thiazolo[5,4-d]pyrimidin-7-yl)piperazin-1-yl)-2-(4-chlorophenoxy)ethanone] | 2.1 µM
14 | COc1ccc(CCc2nc3c(N4CCN(C(=O)COc5ccc(Br)cc5)CC4)nc(N)nc3s2)cc1OC [Example 256, 1-(4-(5-amino-2-(3,4-dimethoxyphenethyl)thiazolo[5,4-d]pyrimidin-7-yl)piperazin-1-yl)-2-(4-bromophenoxy)ethanone] | > 10 µM
15 | COc1ccc(OCC(=O)N2CCN(c3nc(N)nc4sc(CCc5ccc(OC)c(OC)c5)nc34)CC2)cc1 [Example 257, 1-(4-(5-amino-2-(3,4-dimethoxyphenethyl)thiazolo[5,4-d]pyrimidin-7-yl)piperazin-1-yl)-2-(4-methoxyphenoxy)ethanone] | > 10 µM
16 | Cc1ccc(CCc2nc3c(N4CCN(C(=O)COc5ccc(Br)cc5)CC4)nc(N)nc3s2)cc1 [Example 258, 1-(4-(5-amino-2-(4-methylphenethyl)thiazolo[5,4-d]pyrimidin-7-yl)piperazin-1-yl)-2-(4-bromophenoxy)ethanone] | > 10 µM
17 | COc1ccc(OCC(=O)N2CCN(c3nc(N)nc4sc(CCc5ccc(C)cc5)nc34)CC2)cc1 [Example 259, 1-(4-(5-amino-2-(4-methylphenethyl)thiazolo[5,4-d]pyrimidin-7-yl)piperazin-1-yl)-2-(4-methoxyphenoxy)ethanone] | 3 µM
18 | Cc1ccc(CCc2nc3c(N4CCN(C(=O)COc5ccc(Cl)cc5)CC4)nc(N)nc3s2)cc1 [Example 260, 1-(4-(5-amino-2-(4-methylphenethyl)thiazolo[5,4-d]pyrimidin-7-yl)piperazin-1-yl)-2-(4-chlorophenoxy)ethanone] | 4.49 µM
19 | Nc1nc(N2CCN(C(=O)COc3ccc(Cl)cc3)CC2)c2nc(CCCc3ccc(F)cc3)sc2n1 [Example 290, 1-(4-(5-amino-2-(3-(4-fluorophenyl)propyl)thiazolo[5,4-d]pyrimidin-7-yl)piperazin-1-yl)-2-(4-chlorophenoxy)ethanone] | > 10 µM
20 | COc1ccc(OCC(=O)N2CCN(c3nc(N)nc4sc(CCCc5ccc(F)cc5)nc34)CC2)cc1 [Example 291, 1-(4-(5-amino-2-(3-(4-fluorophenyl)propyl)thiazolo[5,4-d]pyrimidin-7-yl)piperazin-1-yl)-2-(4-methoxyphenoxy)ethanone] | > 10 µM
21 | Nc1nc(N2CCN(C(=O)COc3ccc(Cl)cc3)CC2)c2nc(CCCCc3ccc(F)cc3)sc2n1 [Example 292, 1-(4-(5-amino-2-(4-(4-fluorophenyl)butyl)thiazolo[5,4-d]pyrimidin-7-yl)piperazin-1-yl)-2-(4-chlorophenoxy)ethanone] | 9.79 µM
22 | COc1ccc(OCC(=O)N2CCN(c3nc(N)nc4sc(CCCCc5ccc(F)cc5)nc34)CC2)cc1 [Example 293, 1-(4-(5-amino-2-(4-(4-fluorophenyl)butyl)thiazolo[5,4-d]pyrimidin-7-yl)piperazin-1-yl)-2-(4-methoxyphenoxy)ethanone] | 0.83 µM
23 | COc1ccc(OCC(=O)N2CCN(c3nc(N)nc4sc(-c5ccc(C)cc5)nc34)CC2)cc1 [Example 294, 1-(4-(5-amino-2-p-tolylthiazolo[5,4-d]pyrimidin-7-yl)piperazin-1-yl)-2-(4-methoxyphenoxy)ethanone] | 4.16 µM
24 | Cc1ccc(-c2nc3c(N4CCN(C(=O)COc5ccc(Cl)cc5)CC4)nc(N)nc3s2)cc1 [Example 295, 1-(4-(5-amino-2-p-tolylthiazolo[5,4-d]pyrimidin-7-yl)piperazin-1-yl)-2-(4-chlorophenoxy)ethanone] | 0.23 µM
25 | COc1ccc(OCC(=O)N2CCN(c3nc(N)nc4sc(CCc5ccc(Br)cc5)nc34)CC2)cc1 [Example 298, 1-(4-(5-amino-2-(4-bromophenethyl)thiazolo[5,4-d]pyrimidin-7-yl)piperazin-1-yl)-2-(4-methoxyphenoxy)ethanone] | > 10 µM
26 | Nc1nc(N2CCN(C(=O)COc3ccc(Cl)cc3)CC2)c2nc(CCc3ccc(Br)cc3)sc2n1 [Example 299, 1-(4-(5-amino-2-(4-bromophenethyl)thiazolo[5,4-d]pyrimidin-7-yl)piperazin-1-yl)-2-(4-chlorophenoxy)ethanone] | 3.72 µM
27 | O=C(COc1ccc(Cl)cc1)N1CCN(c2ncnc3sc(-c4ccc(F)cc4)nc23)CC1 [Example 301, 1-(4-(2-(4-fluorophenyl)thiazolo[5,4-d]pyrimidin-7-yl)piperazin-1-yl)-2-(4-chlorophenoxy)ethanone] | 2.06 µM
28 | Nc1nc(N2CCN(C(=O)COc3ccc(F)cc3)CC2)c2cc(-c3ccccc3)sc2n1 [Example 370, 1-(4-(2-amino-6-phenylthieno[2,3-d]pyrimidin-4-yl)piperazin-1-yl)-2-(4-fluorophenoxy)ethanone] | 6.38 µM
29 | Nc1nc(N2CCN(C(=O)COc3ccc(Br)cc3)CC2)c2cc(-c3ccccc3)sc2n1 [Example 372, 1-(4-(2-amino-6-phenylthieno[2,3-d]pyrimidin-4-yl)piperazin-1-yl)-2-(4-bromophenoxy)ethanone] | 9.87 µM

same assay, conditions: cytotoxicity on HSB-2 cells, two days incubation, WST-1 read-out

Row | Structure (SMILES) | IC50
30 | Nc1nc(N2CCN(C(=O)COc3ccc(Br)cc3)CC2)c2nc(-c3ccc(F)cc3)sc2n1 [Example 235, 1-(4-(5-amino-2-(4-fluorophenyl)thiazolo[5,4-d]pyrimidin-7-yl)piperazin-1-yl)-2-(4-bromophenoxy)ethanone] | 0.55 µM

— patent publication US9573966B2, “Anti-cancer activity of novel bicyclic heterocycles” (Katholieke Universiteit Leuven, K.U.Leuven R&D, priority 2010, dated 2017)
